In the NIST ThermoML archive (doi:10.1016/j.jct.2010.03.021):
Where “and” joins values, the source holds several entries; their conditions need not be identical. Equal values may be shown once. ± gives the expanded uncertainty stated by the source.

Experiments:
[1] = Crystal, Calculated from knudsen effusion weight loss
[2] = molar enthalpy of vaporization or sublimation; conditions: Crystal

O=[N+]([O-])c1ccc(-n2cccc2)cc1 [1-(4-nitrophenyl)pyrrole]
[1]
Conditions	vapor or sublimation pressure
344.09 K	9.59e-05 ± 4.8e-06 kPa and 9.52e-05 ± 4.8e-06 kPa and 9.41e-05 ± 4.7e-06 kPa
346.13 K	0.000118 ± 6e-06 kPa and 0.000117 ± 6e-06 kPa
348.17 K	0.000145 ± 7e-06 kPa and 0.000144 ± 7e-06 kPa
350.09 K	0.000179 ± 9e-06 kPa and 0.000182 ± 9e-06 kPa and 0.000181 ± 9e-06 kPa
352.13 K	0.000219 ± 1.1e-05 kPa and 0.00022 ± 1.1e-05 kPa and 0.000227 ± 1.1e-05 kPa
354.18 K	0.00027 ± 1.4e-05 kPa and 0.000272 ± 1.4e-05 kPa and 0.000284 ± 1.4e-05 kPa
356.13 K	0.000344 ± 1.7e-05 kPa and 0.000343 ± 1.7e-05 kPa and 0.00034 ± 1.7e-05 kPa
358.2 K	0.00043 ± 2.2e-05 kPa and 0.000417 ± 2.1e-05 kPa and 0.000427 ± 2.1e-05 kPa
360.16 K	0.000505 ± 2.5e-05 kPa and 0.000525 ± 2.6e-05 kPa
362.07 K	0.000642 ± 3.2e-05 kPa and 0.000638 ± 3.2e-05 kPa and 0.000641 ± 3.2e-05 kPa
364.09 K	0.000766 ± 3.8e-05 kPa and 0.000762 ± 3.8e-05 kPa and 0.000783 ± 3.9e-05 kPa
366.16 K	0.000934 ± 4.7e-05 kPa and 0.000933 ± 4.7e-05 kPa

[2]
Conditions	molar enthalpy [kJ/mol]
298.15 K, Ebulliometric method (Recirculating still)	112.4 ± 0.9
355.13 K, Clausius-Clapeyron Equation	109.6 ± 0.8

O=[N+]([O-])c1ccccc1-n1cccc1 [1-(2-nitrophenyl)pyrrole]
[1]
Conditions	vapor or sublimation pressure
306.11 K	0.000106 ± 5e-06 kPa and 0.000108 ± 5e-06 kPa and 0.000109 ± 5e-06 kPa
308.2 K	0.000141 ± 7e-06 kPa and 0.000138 ± 7e-06 kPa and 0.000139 ± 7e-06 kPa
310.18 K	0.000181 ± 9e-06 kPa and 0.000173 ± 9e-06 kPa and 0.000174 ± 9e-06 kPa
312.12 K	0.000226 ± 1.1e-05 kPa and 0.000227 ± 1.1e-05 kPa and 0.000228 ± 1.1e-05 kPa
314.19 K	0.000291 ± 1.5e-05 kPa and 0.000284 ± 1.4e-05 kPa and 0.00029 ± 1.5e-05 kPa
316.18 K	0.000368 ± 1.8e-05 kPa and 0.000355 ± 1.8e-05 kPa and 0.000358 ± 1.8e-05 kPa
318.11 K	0.000464 ± 2.3e-05 kPa and 0.000466 ± 2.3e-05 kPa
320.18 K	0.0006 ± 3e-05 kPa and 0.000587 ± 2.9e-05 kPa and 0.000594 ± 3e-05 kPa
322.18 K	0.000764 ± 3.8e-05 kPa and 0.000733 ± 3.7e-05 kPa and 0.00074 ± 3.7e-05 kPa
324.12 K	0.000955 ± 4.8e-05 kPa and 0.000965 ± 4.8e-05 kPa and 0.000963 ± 4.8e-05 kPa
326.2 K	0.001224 ± 0.00013 kPa and 0.001209 ± 0.00013 kPa and 0.001238 ± 0.00013 kPa

[2], Clausius-Clapeyron Equation
Conditions	molar enthalpy [kJ/mol]
298.15 K	101.3 ± 0.8
316.16 K	100.4 ± 0.8
